Results as given in ChEMBL document CHEMBL1201862, “PubChem BioAssay data set” (2004).
Activity calls are given as the source filed them.

Experiments:
cells = assay type: functional, cell-based; conditions: HEK-CNG
Galanin receptor type 3 = Galanin receptor type 3 (Homo sapiens, UniProt O60755); assay: Fluorescence-based cell-based primary high throughput dose response assay to identify antagonists of the Galanin Receptor 3 (GalR3).; assay type: functional
Cryptococcus neoformans [1] = assay: Cryptococcus growth inhibition by alamar blue – cell lysis, cherry-picks, replicate tests, mechanism study for C. neoformans antifungal project, dose response (AID 686999); assay type: functional, organism-based
Cryptococcus neoformans [2] = assay: PubChem AID 686997; assay type: functional, organism-based
[3] = molecular target: ADP-ribosylation factor GTPase-activating protein 1 (Rattus norvegicus, UniProt Q62848); assay: Fluorescence polarization-based biochemical high throughput dose response screening assay to identify inhibitors of ADP-ribosylation factor GTPase activating protein 1 (ARFGAP1).; assay type: functional
[4] = HEK293T cell cytotoxicity, dose response, cytotoxicity control for HIV Vif inhibitor project, cherry-picks (AID 652208); assay type: functional, cell-based
Albumin = Albumin (Bos taurus, UniProt P02769); assay: Counterscreen for inhibitors of T-cell receptor (TCR)-CD3 interaction: Fluorescence-based biochemical high throughput dose response assay to identify inhibitors of T-cell receptor (TCR)-CD3 interaction using a TAMRA-labeled BSA probe.; assay type: functional
[5] = molecular target: T1, Intestinal-type alkaline phosphatase (Homo sapiens, UniProt P09923); assay: human IAP activators, dose response, biochemical, luminescent, uHTS hits, set 2 (AID 488817); assay type: functional;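 further: potency of activators that raise enzyme activity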
[6] = molecular target: Intestinal-type alkaline phosphatase (Mus musculus, UniProt P24822); assay: PubChem AID 488875; assay type: functional
[7] = molecular target: T1, Intestinal-type alkaline phosphatase; assay: human intestinal alkaline phosphatase activators, dose response, biochemical, luminescence, uHTS hits (AID 463120); assay type: functional
[8] = molecular target: T2, Alkaline phosphatase, tissue-nonspecific isozyme (Homo sapiens, UniProt P05186); assay: TNAP enzyme activators, dose response, selectivity assay for human IAP activator project, biochemical, TNAP isozyme, human IAP uHTS hits (AID 488886); assay type: functional;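 further: potency of compounds raising TNAP activity as a selectivity check on IAP activators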
T2 sequence (P05186 whole entry): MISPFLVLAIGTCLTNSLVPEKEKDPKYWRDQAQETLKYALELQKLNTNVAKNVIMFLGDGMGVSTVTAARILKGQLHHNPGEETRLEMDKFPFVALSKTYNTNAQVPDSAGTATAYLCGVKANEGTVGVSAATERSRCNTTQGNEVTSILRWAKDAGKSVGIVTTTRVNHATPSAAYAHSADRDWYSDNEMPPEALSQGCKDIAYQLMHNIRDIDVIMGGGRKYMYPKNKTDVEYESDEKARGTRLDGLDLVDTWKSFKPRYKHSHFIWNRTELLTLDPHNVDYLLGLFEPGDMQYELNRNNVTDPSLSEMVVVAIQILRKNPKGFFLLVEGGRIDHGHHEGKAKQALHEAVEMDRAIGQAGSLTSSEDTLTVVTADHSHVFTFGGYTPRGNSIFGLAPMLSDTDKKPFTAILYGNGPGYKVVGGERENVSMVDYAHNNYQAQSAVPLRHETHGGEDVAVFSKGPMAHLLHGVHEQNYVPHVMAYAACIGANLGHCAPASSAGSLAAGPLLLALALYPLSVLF

Lethal factor = Lethal factor (Bacillus anthracis, UniProt P15917); assay: High-throughput multiplex microsphere dose response for inhibitors of toxin protease, specifically Lethal Factor protease, compounds from Powder Set 01.; assay type: functional, Bacillus anthracis str. A2012; conditions: read-out: EC50_MICROM
[9] = molecular target: Botulinum neurotoxin type F (Clostridium botulinum, UniProt P30996); assay: High-throughput multiplex microsphere dose response for inhibitors of toxin protease, specifically Botulinum neurotoxin light chain F protease, compounds from Powder Set 01.; assay type: functional, Clostridium botulinum Bf; conditions: read-out: EC50_MICROM
[10] = molecular target: T3, Botulinum neurotoxin type A (Clostridium botulinum (strain Hall / ATCC 3502 / NCTC 13319 / Type A), UniProt P0DPI1); assay: High-throughput multiplex microsphere dose response for inhibitors of toxin protease, specifically Botulinum neurotoxin light chain A protease, compounds from Powder Set 01.; assay type: functional, Clostridium botulinum A str. ATCC 3502; conditions: read-out: EC50_MICROM
[11] = molecular target: T3, Botulinum neurotoxin type A; assay: Confirmatory FRET assay using full length substrates for Botulinum neurotoxin light chain A protease, with Powder Set01.; assay type: functional
[12] = molecular target: T4, Sentrin-specific protease 1 (Homo sapiens, UniProt Q9P0U3); assay: Dose response confirmation of small molecule inhibitors of the catalytic domain of the SUMO protease, SENP1 in a FRET assay.; assay type: functional; conditions: read-out: IC50_Mean
T4 sequence (Q9P0U3 whole entry): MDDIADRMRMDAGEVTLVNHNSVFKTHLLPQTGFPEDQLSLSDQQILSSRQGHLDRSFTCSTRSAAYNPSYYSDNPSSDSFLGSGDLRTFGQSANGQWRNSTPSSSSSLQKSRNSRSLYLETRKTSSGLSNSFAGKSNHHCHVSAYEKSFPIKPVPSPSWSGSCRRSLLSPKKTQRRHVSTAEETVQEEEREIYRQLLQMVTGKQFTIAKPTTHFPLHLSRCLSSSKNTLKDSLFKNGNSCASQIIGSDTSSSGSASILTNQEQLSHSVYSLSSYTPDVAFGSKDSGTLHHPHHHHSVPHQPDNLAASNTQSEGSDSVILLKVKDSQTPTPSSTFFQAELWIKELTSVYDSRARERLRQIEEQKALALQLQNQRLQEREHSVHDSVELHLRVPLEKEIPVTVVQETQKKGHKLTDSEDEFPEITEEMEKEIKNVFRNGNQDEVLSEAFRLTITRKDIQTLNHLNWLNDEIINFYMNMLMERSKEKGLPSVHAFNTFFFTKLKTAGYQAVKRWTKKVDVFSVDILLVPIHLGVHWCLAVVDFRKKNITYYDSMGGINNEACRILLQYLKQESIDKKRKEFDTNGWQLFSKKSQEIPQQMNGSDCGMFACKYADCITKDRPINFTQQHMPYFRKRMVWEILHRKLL

[13] = molecular target: T5, Probable nicotinate-nucleotide adenylyltransferase (Staphylococcus aureus (strain N315), UniProt P65502); assay type: functional, Staphylococcus aureus subsp. aureus N315; conditions: read-out: IC50_Mean;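 on IC50 Mean: confirmatory dose-response retesting of NadD inhibitor hits first found in an ultra-high-throughput screen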
[14] = molecular target: T5, Probable nicotinate-nucleotide adenylyltransferase; assay type: functional, Staphylococcus aureus subsp. aureus N315
[15] = molecular target: T4, Sentrin-specific protease 1; assay: potency of human SENP1 inhibitors, dose response, biochemical, kinetic FRET (AID 651697); assay type: functional; conditions: read-out: IC50_Mean

T5 sequence (P65502 whole entry): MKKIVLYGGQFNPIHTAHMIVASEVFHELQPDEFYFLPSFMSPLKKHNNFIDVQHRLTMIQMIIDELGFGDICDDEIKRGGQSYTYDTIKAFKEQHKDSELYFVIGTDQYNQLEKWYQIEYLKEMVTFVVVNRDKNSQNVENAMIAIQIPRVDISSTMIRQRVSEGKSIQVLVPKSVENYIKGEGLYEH
T1 sequence (P09923 whole entry): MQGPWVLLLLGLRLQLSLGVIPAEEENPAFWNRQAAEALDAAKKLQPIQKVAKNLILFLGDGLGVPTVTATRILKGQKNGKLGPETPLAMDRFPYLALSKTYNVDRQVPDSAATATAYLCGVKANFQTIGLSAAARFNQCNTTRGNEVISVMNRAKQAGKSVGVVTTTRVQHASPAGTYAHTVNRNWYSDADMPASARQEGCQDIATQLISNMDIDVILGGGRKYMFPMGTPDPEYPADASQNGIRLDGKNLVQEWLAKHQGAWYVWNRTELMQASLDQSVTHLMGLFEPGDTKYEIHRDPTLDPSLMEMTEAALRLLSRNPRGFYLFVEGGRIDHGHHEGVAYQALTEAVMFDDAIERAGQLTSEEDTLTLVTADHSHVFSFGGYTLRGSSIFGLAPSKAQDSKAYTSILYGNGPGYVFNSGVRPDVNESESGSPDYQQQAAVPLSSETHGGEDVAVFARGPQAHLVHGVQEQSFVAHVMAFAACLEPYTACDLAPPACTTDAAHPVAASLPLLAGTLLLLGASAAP
T3 sequence (P0DPI1 2-448 limits assumed): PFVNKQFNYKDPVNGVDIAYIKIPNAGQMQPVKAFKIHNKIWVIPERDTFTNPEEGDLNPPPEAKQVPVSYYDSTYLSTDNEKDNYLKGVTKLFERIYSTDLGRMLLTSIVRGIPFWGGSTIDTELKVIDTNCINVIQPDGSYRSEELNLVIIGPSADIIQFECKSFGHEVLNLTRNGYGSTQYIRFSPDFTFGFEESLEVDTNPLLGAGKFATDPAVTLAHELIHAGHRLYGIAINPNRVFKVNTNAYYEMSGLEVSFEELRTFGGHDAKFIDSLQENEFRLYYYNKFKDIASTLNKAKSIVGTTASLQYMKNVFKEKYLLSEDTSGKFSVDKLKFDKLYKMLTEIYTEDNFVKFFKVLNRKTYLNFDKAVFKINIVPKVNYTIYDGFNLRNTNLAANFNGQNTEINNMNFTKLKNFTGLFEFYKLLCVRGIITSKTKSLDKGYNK
Sequence of Albumin (P02769 whole entry): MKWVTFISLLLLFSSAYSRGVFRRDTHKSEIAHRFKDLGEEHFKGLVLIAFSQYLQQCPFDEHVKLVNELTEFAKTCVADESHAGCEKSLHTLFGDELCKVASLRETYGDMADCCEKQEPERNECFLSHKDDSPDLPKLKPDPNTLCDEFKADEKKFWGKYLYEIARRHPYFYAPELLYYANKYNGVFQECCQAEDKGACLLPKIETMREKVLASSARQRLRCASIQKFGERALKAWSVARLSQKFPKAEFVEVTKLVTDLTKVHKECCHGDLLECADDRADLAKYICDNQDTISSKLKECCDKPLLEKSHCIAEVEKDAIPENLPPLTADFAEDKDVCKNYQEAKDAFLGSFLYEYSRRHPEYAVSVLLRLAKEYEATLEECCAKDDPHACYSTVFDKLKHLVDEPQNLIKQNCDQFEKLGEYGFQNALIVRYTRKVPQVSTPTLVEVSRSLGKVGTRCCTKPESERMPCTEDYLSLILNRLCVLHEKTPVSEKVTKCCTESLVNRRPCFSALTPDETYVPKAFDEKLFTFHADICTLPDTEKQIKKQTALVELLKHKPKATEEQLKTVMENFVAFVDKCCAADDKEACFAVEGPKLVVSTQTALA
Sequence of Botulinum neurotoxin type F (P30996 1-436 limits assumed): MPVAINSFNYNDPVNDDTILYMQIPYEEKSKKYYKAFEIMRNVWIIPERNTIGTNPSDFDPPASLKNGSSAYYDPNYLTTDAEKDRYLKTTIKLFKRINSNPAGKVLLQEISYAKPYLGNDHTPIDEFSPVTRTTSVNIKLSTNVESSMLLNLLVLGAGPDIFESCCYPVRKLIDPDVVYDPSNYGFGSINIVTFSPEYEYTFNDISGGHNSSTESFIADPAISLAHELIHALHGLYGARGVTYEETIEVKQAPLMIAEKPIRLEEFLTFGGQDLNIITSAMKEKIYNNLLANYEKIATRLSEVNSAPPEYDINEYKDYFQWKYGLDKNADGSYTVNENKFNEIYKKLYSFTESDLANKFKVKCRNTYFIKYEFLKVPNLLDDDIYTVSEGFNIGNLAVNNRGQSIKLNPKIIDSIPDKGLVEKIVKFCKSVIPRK
Sequence of ADP-ribosylation factor GTPase-activating protein 1 (Q62848 whole entry): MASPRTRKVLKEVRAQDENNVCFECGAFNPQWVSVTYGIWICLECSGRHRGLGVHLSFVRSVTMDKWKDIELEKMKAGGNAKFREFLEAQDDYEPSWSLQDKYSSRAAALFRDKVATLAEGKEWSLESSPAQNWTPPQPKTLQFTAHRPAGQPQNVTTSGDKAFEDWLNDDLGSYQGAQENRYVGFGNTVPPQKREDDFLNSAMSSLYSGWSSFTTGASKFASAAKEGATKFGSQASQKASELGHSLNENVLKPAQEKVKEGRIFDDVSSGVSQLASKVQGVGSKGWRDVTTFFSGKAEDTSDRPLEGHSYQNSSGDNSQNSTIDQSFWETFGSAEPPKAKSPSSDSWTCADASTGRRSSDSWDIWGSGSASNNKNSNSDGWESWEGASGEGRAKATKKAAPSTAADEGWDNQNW
Sequence of Galanin receptor type 3 (O60755 whole entry): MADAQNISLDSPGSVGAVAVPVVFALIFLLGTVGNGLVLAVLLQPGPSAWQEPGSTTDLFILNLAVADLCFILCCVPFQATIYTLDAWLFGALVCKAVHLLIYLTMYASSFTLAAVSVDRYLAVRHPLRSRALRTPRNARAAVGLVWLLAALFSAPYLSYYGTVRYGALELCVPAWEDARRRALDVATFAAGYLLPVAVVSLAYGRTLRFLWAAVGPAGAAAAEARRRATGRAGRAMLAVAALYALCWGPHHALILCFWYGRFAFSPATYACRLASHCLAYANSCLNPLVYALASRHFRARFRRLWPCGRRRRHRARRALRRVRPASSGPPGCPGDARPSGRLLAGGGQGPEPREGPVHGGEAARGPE
Sequence of Lethal factor (P15917 whole entry): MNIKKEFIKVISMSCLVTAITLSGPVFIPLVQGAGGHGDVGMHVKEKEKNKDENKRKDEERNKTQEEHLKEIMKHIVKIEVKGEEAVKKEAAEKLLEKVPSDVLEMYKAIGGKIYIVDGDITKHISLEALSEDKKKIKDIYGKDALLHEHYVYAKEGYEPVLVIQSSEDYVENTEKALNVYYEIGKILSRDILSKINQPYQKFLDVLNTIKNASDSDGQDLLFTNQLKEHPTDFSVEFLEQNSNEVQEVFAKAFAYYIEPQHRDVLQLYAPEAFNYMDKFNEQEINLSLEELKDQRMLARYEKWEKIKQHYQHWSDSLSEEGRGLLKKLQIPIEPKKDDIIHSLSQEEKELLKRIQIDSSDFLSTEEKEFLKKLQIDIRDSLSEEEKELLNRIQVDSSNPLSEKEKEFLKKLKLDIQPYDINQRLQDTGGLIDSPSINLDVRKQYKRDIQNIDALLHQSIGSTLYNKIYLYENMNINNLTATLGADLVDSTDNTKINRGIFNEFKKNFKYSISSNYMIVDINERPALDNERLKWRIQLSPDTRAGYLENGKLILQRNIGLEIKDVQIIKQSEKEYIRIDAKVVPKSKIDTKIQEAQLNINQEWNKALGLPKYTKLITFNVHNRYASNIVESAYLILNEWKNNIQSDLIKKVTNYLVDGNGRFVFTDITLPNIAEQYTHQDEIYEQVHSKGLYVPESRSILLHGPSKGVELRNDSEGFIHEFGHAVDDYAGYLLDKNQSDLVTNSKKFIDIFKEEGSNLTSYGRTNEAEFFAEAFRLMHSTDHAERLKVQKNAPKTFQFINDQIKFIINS
Sequence of Intestinal-type alkaline phosphatase (Mus musculus, UniProt P24822) (P24822 whole entry): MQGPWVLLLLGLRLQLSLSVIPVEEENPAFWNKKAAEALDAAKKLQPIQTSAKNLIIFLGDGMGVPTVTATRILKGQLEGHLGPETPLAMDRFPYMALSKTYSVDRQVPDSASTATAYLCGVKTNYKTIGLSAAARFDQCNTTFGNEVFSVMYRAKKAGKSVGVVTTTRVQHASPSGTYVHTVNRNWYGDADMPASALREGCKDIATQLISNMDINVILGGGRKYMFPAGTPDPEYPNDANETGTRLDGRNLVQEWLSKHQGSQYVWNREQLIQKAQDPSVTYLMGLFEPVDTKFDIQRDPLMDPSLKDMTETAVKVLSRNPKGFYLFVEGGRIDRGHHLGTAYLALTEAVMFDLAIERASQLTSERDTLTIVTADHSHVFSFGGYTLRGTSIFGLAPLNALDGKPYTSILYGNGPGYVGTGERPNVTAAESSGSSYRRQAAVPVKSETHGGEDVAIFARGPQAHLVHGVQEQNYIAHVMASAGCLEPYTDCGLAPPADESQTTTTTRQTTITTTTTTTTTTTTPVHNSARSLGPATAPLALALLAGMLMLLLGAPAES

CC(=O)c1cn(CC(=O)NCCc2c[nH]c3ccccc23)c2ccccc12
EC50 (cells): > 29.9 µM (inactive) | IC50 (Galanin receptor type 3): 2.7 µM (active)

COC(=O)C1=C(C)N(Cc2ccc(Cl)cc2)C(=S)NC1c1ccc(Br)cc1 (centres undefined)
AC50 (Cryptococcus neoformans [1]): 29.1 µM (active) | AC50 (Cryptococcus neoformans [2]): 27.3 µM (active)

COc1ccc(-n2nc(C(=O)NCC(=O)Nc3cccc(Cl)c3)c3ccccc3c2=O)cc1OC
IC50 [3]: 83.9 µM (inactive) | AC50 [4]: 17.4 µM (active)

Cc1ccc(NC(=O)NNC(=O)c2cc3ccccc3cc2O)cc1
IC50 (Albumin): > 94.1 µM (inactive) | EC50 [5]: 14.9 µM (active) | EC50 [6]: > 100 µM (inactive) | EC50 [7]: 9.83 µM (active) | EC50 [8]: 13 µM (active)

O=C(Nc1ccc2nc(-c3cccs3)c(-c3cccs3)nc2c1)N1CCCCC1
EC50 (Lethal factor): 6.7 µM (active) | EC50 [9]: 4.6 µM (active) | EC50 [10]: 6.1 µM (active) | EC50 [11]: 6.9 µM (active)

CCOC(=O)C1=C(C)N=c2sc(=Cc3cc(Cl)c(OCC(=O)O)c(Cl)c3)c(=O)n2C1c1cccc(OC)c1 (centres undefined)
IC50 [12]: 12.8 µM (active) | IC50 [13]: 19.2 µM (active) | IC50 [14]: 5.18 µM (active) | IC50 [15]: 19.6 µM (active)
